Among the data in ChEMBL document CHEMBL1134089, “Arylsulphonyl hydroxamic acids: potent and selective matrix metalloproteinase inhibitors” (Bioorg Med Chem Lett, 2001) are IC50, Plasma level and inhibition in vivo values, retold here.

For series [1], the target named is Neutrophil collagenase (Homo sapiens, UniProt P22894). Nature of the series: Inhibition of Matrix metalloprotease-8.
Series [2] deals with T1, Interstitial collagenase (Homo sapiens, UniProt P03956).
T1 sequence (P03956 whole entry): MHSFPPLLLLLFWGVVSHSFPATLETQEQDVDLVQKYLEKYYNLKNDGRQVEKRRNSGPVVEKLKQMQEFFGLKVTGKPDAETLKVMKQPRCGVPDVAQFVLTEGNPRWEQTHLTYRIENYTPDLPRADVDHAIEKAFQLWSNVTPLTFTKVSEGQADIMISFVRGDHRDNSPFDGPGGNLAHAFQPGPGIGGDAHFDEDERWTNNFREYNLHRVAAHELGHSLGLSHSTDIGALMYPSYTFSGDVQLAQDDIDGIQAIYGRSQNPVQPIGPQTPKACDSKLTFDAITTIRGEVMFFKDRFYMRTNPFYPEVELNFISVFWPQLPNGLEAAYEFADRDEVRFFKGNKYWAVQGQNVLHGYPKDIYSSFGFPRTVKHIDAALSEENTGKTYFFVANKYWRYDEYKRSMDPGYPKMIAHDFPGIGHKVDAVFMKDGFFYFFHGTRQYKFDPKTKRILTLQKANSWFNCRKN
Nature of the series: Inhibition of Matrix metalloprotease-1.

Series [3] has as its target Matrix metalloproteinase-9 (Homo sapiens, UniProt P14780). The experiment in a line: Inhibition of Matrix metalloprotease-9.
For series [4], the target named is Stromelysin-1 (Homo sapiens, UniProt P08254). The experiment in a line: Inhibition of Matrix metalloprotease-3.
Sequence of Stromelysin-1 (P08254 whole entry): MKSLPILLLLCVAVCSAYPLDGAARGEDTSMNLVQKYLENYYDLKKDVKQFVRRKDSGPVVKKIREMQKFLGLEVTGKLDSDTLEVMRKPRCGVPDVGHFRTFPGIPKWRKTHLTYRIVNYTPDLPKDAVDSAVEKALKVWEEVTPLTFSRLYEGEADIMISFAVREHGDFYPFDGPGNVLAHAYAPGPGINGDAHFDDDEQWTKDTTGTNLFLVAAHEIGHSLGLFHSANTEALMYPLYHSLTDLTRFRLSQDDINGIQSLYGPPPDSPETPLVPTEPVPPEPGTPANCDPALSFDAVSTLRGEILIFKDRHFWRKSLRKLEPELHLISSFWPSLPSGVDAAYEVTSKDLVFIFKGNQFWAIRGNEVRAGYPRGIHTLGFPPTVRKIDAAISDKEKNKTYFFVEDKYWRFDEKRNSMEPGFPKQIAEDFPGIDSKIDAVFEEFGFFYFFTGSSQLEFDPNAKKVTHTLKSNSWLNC
In series [5] the target is 72 kDa type IV collagenase (Homo sapiens, UniProt P08253). Nature of the series: Inhibition of Matrix metalloprotease-2.
Sequence of 72 kDa type IV collagenase (P08253 whole entry): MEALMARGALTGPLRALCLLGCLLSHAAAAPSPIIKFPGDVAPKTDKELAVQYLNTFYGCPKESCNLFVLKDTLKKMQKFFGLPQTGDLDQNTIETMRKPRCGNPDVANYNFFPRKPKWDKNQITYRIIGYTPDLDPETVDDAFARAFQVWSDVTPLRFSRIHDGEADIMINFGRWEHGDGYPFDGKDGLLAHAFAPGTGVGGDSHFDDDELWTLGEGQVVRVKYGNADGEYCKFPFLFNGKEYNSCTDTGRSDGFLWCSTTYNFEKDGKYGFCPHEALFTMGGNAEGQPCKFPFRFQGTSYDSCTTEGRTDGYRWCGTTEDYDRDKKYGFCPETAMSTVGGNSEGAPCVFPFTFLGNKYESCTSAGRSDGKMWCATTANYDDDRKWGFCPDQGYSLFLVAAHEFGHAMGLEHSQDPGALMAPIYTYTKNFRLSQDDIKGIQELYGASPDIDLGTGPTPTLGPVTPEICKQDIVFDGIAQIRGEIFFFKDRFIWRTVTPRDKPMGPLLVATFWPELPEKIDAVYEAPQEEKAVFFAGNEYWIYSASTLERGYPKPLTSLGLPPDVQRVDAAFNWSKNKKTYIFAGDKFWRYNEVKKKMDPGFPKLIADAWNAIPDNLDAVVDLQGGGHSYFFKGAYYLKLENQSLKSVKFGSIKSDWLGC
The nature of series [6]: (§1) Inhibitory concentration required against shedding of L-Selectin from stimulated PBMCs. In kind it is functional, Homo sapiens.
Series [7] is described as follows: Inhibitory concentration required against shedding of TNF RII from stimulated PBMCs. In kind it is functional.
For series [8], the system named is Rattus norvegicus. The experiment in a line: Plasma level evaluated in the rat after oral dosing of 10 mg/kg. The class given is ADME, organism-based. More on the design: dose 10 mg/kg, route oral. The settings on record: in vivo.
The nature of series [9]: Inhibitory concentration required against shedding of TNF-alpha from stimulated PBMCs. The class given is functional.
In series [10] the test system is Rattus norvegicus. The experiment in a line: Percent inhibition against adjuvant arthritis in rats tested in vivo at 3 mg/kg. The class given is functional.
A short description of series [11]: Inhibitory concentration required against shedding of IL6-R from stimulated PBMCs. The class given is functional.
Series [12] concerns Mus musculus. The experiment in a line: Percent inhibition against B16-F10 mouse melanoma tested in vivo at 30 mg/kg. The class given is functional.
Series [13] can be described thus: Inhibitory concentration required against shedding of IL-1 RII from stimulated PBMCs. The class given is functional.
Series [14] deals with Rattus norvegicus. Nature of the series: Percent inhibition against adjuvant arthritis in rats tested in vivo at 10 mg/kg. In kind it is functional.
The nature of series [15]: as §1. The class given is functional.

Sequence of Matrix metalloproteinase-9 (P14780 whole entry): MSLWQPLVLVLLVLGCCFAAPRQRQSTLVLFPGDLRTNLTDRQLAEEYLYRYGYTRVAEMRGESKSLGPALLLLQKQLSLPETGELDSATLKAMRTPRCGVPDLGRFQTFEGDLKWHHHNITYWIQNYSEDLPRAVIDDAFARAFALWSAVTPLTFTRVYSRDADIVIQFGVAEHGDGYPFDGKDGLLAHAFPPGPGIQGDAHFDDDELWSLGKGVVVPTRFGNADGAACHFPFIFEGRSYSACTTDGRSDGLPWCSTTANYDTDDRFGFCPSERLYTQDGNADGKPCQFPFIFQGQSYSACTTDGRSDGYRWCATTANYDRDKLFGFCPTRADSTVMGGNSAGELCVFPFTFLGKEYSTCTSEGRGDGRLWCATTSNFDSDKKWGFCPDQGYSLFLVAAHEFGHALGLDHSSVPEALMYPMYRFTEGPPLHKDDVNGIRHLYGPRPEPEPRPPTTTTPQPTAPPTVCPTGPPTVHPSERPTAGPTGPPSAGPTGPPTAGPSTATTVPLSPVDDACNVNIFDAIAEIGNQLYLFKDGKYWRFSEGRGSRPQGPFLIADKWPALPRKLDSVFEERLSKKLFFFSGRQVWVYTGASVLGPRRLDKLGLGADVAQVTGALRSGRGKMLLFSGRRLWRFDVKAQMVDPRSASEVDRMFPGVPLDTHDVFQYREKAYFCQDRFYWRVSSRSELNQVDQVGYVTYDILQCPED
Sequence of Neutrophil collagenase (P22894 whole entry): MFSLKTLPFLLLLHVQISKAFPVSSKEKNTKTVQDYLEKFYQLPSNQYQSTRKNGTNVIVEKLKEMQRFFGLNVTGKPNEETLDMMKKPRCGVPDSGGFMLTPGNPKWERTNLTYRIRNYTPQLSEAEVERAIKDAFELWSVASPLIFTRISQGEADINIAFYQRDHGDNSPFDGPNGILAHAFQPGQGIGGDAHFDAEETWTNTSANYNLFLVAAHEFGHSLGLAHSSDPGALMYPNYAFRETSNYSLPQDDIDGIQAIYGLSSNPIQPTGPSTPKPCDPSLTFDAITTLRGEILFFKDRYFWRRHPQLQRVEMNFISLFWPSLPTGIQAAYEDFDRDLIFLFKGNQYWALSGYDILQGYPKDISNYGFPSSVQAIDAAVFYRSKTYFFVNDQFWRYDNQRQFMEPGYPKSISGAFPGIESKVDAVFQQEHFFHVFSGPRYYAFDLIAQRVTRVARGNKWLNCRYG

As for `O=C(NO)C(CCCc1ccccc1)CS(=O)(=O)c1ccc(C(O)c2ccccc2)cc1` (centres undefined), the IC50 in series [1] worked out at 3 µM; in series [2], 25 µM; in series [3], 2.5 µM; in [4] it was 2.5 µM; in [5], 1.7 µM.
Regarding `Cl.O=C(c1ccncc1)c1ccc(S(=O)(=O)CC(CCCc2ccccc2)C(=O)NO)cc1` (centres undefined), the IC50 in series [6] is above 100 µM; in [7] (Homo sapiens), above 100 µM; in series [1], 0.003 µM; in series [9] (Homo sapiens), above 100 µM; in series [2], 10 µM; in [11] (Homo sapiens) it was above 100 µM. Further, the IC50 is 0.015 µM in series [3], 37 µM in [13] (Homo sapiens), 0.1 µM in series [4] and 0.003 µM in series [5]. Also, in series [8], the Plasma level amounted to 300 ng/mL. Also, the inhibition in vivo at 3 mg/kg in series [10] was found to be 50%. Besides, at 30 mg/kg the inhibition in vivo in [12] was 80%.
As for `O=C(c1ccccc1)c1ccc(S(=O)(=O)CC(CCCc2ccccc2)C(=O)O)cc1` (centres undefined), the IC50 came to 0.3 µM in series [1]; 20 µM in [2]; 0.4 µM in series [3]; 1.2 µM in series [4]; 0.8 µM in series [5].
Taken in the same sequence, the figures for `O=C(NO)C(CCCc1ccccc1)CS(=O)(=O)c1ccc(Cc2ccccc2)cc1` (centres undefined) were 0.3 µM, above 30 µM, 0.15 µM, above 2 µM and 0.2 µM.
As for `O=C(c1ccccc1)c1ccc(S(=O)(=O)CC(CCCc2ccccc2)C(=O)NO)cc1` (centres undefined), the IC50 was above 100 µM in [6]; above 100 µM in series [7] (Homo sapiens); 0.015 µM in [1]; above 100 µM in [9] (Homo sapiens); above 100 µM in [11] (Homo sapiens); above 100 µM in [13] (Homo sapiens). This molecule also registered an IC50 in [4] of 0.1 µM. In addition, the inhibition in vivo at 30 mg/kg in [12] came out at 40%. The inhibition in vivo at 10 mg/kg in [14] was found to be 40%.
`O=C(c1ccc(S(=O)(=O)CC(CCCc2ccccc2)C(=O)NO)cc1)c1cc[n+]([O-])cc1` (centres undefined): the IC50 in [1] amounted to 0.08 µM; in series [2] it was 20 µM; in [3] it was 0.15 µM; in series [4] it was 0.35 µM; in [5], 0.05 µM.
On to `CNC(=O)[C@@H](NC(=O)C(CC(C)C)C(O)C(=O)NO)C(C)(C)C` (single isomer, unassigned), for which the IC50 in [7] was 1 µM; in [9], 2 µM; in series [11] it was 10 µM; in [15], 5 µM; in [13], 10 µM. At 30 mg/kg the inhibition in vivo in [12] was 40%. For the same molecule, the inhibition in vivo at 10 mg/kg in series [14] stood at 50%.

Usually IC50 stands for the concentration needed to halve the response being measured. A high value points to weaker potency. A word on the inhibition in vivo: it is how much of the control response was suppressed.
